The record followed here is patent US10662195B2, “Protein kinase conjugates and inhibitors” (Celgene Avilomics Research, Inc., priority 2009, dated 2020).

In one assay the target is T1, FAK (Homo sapiens, UniProt Q05397).
T1 construct: purchased Invitrogen (Madison, Wis.) M4446
Description: FAK biochemical assay (OMNIA kinase assay, pre-activated FAK). Conditions: FAK=15 nM, ATP=100 μM, 30 min pre-incubation. On the procedure:
Activities of FAK inhibitors were assessed in an OMNIA® kinase assay (Invitrogen, Carlsbad, Calif.) using pre-activated FAK enzyme. Briefly, a 10× stock of pre-activated FAK enzyme (M4446) from Invitrogen (Madison, Wis.), 1.13×ATP (AS001A) and Y3-Sox conjugated peptide substrate (YP003A) were prepared in 1× kinase reaction buffer consisting of 20 mM Tris, pH 7.5, 5 mM MgCl2, 1 mM EGTA, 5 mM β-glycerophosphate, 5% glycerol (10× stock, KB002A) and 0.2 mM DTT (DS001A). 5 μL of enzyme were pre-incubated in a Corning (#3574) 384-well, white, non-binding surface microtiter plate (Corning, N.Y.) for 30 min at 27° C. with a 0.5 μL volume of 50% DMSO and serially diluted compounds prepared in 50% DMSO. Kinase reactions were started with the addition of 45 μL of ATP/Y3-Sox peptide substrate mix and monitored every 30-90 seconds for 60 minutes at λex360/λem485 in a Synergy^4 plate reader from BioTek (Winooski, Vt.). […] Initial velocity (0 minutes to ˜30 minutes) from each reaction was determined from the slope of a plot of relative fluorescence units vs time (minutes) and then plotted against inhibitor concentration to estimate IC50 from log [Inhibitor] vs Response, Variable Slope model in GraphPad Prism from GraphPad Software (San Diego, Calif.). […]

For a further assay, the target named is FAK (PTK2) (Homo sapiens, UniProt Q05397). Description: Mass spectral analysis of intact FAK after incubation with compound. Conditions: 1 hr, 10× excess of compound to protein; for modification of FAK (PTK2) by compound, mass spec: intact protein MALDI. In kind it is binding. How it is done:
Intact FAK (PTK2) was incubated for 1 hr at a 10× fold access of compound IV-29 to protein. 3 ul aliquots of the samples were diluted with 10 ul of 0.1% TFA prior to micro C4 ZipTipping directly onto the MALDI target using Sinapinic acid as the desorption matrix (10 mg/ml in 0.1% TFA:Acetonitrile 50:50). Mass spec analysis was run on intact FAK (PTK2) protein (m/z 146,672 Da), and on FAK that was incubated with compound IV-29 (mw=669.2).

For the next assay, the system named is CKIT. Description: cKIT washout assay in GIST882 cells (C-kit phosphorylation, western blot). Format: cell-based. On the procedure: GIST882 cells (See, Bauer et al., Cancer Research, 66(18):9153-9161 (2006)) were seeded in a 6 well plate at a density of 8×10^5 cells/well in complete media. The next day cells were treated with 1 uM compound diluted in complete media for 90 minutes. After 90 minutes, the media was removed and cells were washed with compound-free media. Cells were washed every 2 hours and resuspended in fresh compound-free media. Cells were collected at specified time points, lysed in Cell Extraction Buffer (Invitrogen FNN0011) supplemented with Roche complete protease inhibitor tablets (Roche 11697498001) and phosphatase inhibitors (Roche 04 906 837 001) and lysates were sheared by passing through a 28.5 gauge syringe 10 times each. Protein concentrations were measured and 10 ug total protein lysate was loaded in each lane. C-kit phosphorylation was assayed by western blot with pTyr (4G10) antibody and total kit antibody from Cell Signaling Technology.
Sorafenib and XVIII-11 were tested for cellular activity in a GIST882 cell line at 1 micromolar. The results are depicted in FIGS. 2a and 2b where it is shown that XVIII-11 maintained c-KIT enzyme inhibition in […] cells after “washout” for at least 8 hours. […] In order to understand whether there was a prolonged inhibition with the irreversible inhibitor the cells were washed free of compound. For the reversible inhibitor, Sorafenib, the inhibitory activity of cKIT and downstream signaling was overcome whereas the irreversible inhibition of XVIII-11 persisted for at least 8 hours.

The subject of the next assay is ERK. The assay is described as follows: cKIT washout assay, downstream signaling (ERK phosphorylation). Format: cell-based. Conditions: GIST882 cell line, 1 micromolar, 90 minutes. How it is done:
The next day cells were treated with 1 uM compound diluted in complete media for 90 minutes. After 90 minutes, the media was removed and cells were washed with compound-free media. Cells were washed every 2 hours and resuspended in fresh compound-free media. […] Protein concentrations were measured and 10 ug total protein lysate was loaded in each lane. C-kit phosphorylation was assayed by western blot with pTyr (4G10) antibody and total kit antibody from Cell Signaling Technology.
Sorafenib and XVIII-11 were tested for cellular activity in a GIST882 cell line at 1 micromolar. The results are depicted in FIGS. 2a and 2b where it is shown that XVIII-11 maintained c-KIT enzyme inhibition in […] cells after “washout” for at least 8 hours. […] In order to understand whether there was a prolonged inhibition with the irreversible inhibitor the cells were washed free of compound.

Chain of FAK (PTK2) (Q05397 whole entry): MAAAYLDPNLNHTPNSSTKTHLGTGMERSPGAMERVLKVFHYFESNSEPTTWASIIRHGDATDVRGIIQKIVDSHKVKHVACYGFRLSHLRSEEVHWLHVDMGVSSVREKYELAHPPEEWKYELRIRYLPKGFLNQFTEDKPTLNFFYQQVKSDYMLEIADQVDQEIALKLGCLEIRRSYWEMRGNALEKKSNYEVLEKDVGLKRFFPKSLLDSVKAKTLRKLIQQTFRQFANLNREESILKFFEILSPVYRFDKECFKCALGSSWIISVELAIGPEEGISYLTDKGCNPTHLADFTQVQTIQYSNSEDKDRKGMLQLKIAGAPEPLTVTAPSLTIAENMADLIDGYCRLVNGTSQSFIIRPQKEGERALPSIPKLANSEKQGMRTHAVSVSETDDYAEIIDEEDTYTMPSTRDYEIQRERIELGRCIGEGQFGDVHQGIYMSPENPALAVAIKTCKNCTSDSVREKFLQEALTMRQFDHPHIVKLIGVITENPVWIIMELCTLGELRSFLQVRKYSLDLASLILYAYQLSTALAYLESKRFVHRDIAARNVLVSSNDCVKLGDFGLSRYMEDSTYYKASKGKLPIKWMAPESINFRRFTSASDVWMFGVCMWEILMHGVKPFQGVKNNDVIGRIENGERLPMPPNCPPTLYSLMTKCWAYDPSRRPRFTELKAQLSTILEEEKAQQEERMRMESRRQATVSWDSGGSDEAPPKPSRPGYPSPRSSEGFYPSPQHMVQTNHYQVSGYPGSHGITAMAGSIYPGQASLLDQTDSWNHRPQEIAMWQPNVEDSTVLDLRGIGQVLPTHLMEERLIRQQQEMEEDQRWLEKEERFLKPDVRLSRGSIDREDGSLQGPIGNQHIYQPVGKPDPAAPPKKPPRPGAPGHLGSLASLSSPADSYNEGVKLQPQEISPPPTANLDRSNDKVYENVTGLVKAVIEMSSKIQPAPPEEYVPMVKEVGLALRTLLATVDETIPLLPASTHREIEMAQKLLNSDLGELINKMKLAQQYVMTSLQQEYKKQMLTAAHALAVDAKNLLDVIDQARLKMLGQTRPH
T1 sequence (Q05397 whole entry): as above

The term IC50 denotes the concentration that gives 50% inhibition. For the compound `C=CC(=O)N1CCC2(CCCN(c3ccc(Nc4ncc(Cl)c(Nc5ccccc5C(=O)NC)n4)c(OC)c3)C2)CC1` [IV-30, 2-{2-[4-(9-Acryloyl-2,9-diaza-spiro[5.5]undec-2-yl)-2-methoxy-phenylamino]-5-chloro-pyrimidin-4-ylamino}-N-methyl-benzamide], the half-inhibitory concentration (IC50) at FAK was found to be 5.89 nM. The “modification of FAK (PTK2) by compound, mass spec” value on FAK (PTK2) is recorded as “did not modify FAK”.
For `C=CC(=O)Nc1ccc(C(=O)NC2(C)CCN(c3ccc(Nc4ncc(Cl)c(Nc5ccccc5C(=O)NC)n4)c(OC)c3)CC2)cc1` [IV-29, 2-(2-(4-(4-(4-acrylamidobenzamido)-4-methylpiperidin-1-yl)-2-methoxyphenylamino)-5-chloropyrimidin-4-ylamino)-N-methylbenzamide], the IC50 on FAK was 5.24 nM. In addition, at FAK (PTK2), the “positive shift of centroid mass of FAK” value is reported as “about 365 Da” and the “modification of FAK (PTK2) by compound, mass spec” value was “almost complete modification of FAK”.
In the case of `CNC(=O)c1cc(Oc2ccc(NC(=O)Nc3ccc(Cl)c(C(F)(F)F)c3)cc2)ccn1` [Sorafenib, sorafenib], the “inhibitory activity of cKIT and downstream signaling after washout” value in the assay with CKIT (1 uM for 90 minutes, then washed free of compound) is listed as “overcome”. The “inhibition of cKIT autophosphorylation” value in the assay with CKIT (GIST882 cell line, 1 micromolar, 90 minutes) was “inhibited cKIT autophosphorylation”. Besides, the “inhibition of downstream signaling of ERK” value with ERK is listed as “inhibited”.
